Measurements published in patent US20110195949A1, “2-BENZOTHIOPHENYL- AND 2-NAPHTHYL-OXAZOLIDINONES AND THEIR AZAISOSTERE ANALOGUES AS ANTIBACTERIAL AGENTS” (ACTELION PHARMACEUTICALS LTD., priority 2008, published 2011).
≈ marks a conversion by molar mass, not a printed value.

The compounds below were run on M. catarrhalis A894 (assay: Minimal inhibitory concentration (MIC), microdilution method in cation-adjusted Mueller-Hinton Broth (CLSI M7-A7)). Conditions: Moraxella catarrhalis, strain A894.
Format: cell-based
Method: Minimal inhibitory concentrations (MICs; mg/L) were determined in cation-adjusted Mueller-Hinton Broth by a microdilution method following the description given in “Methods for Dilution Antimicrobial Susceptibility Tests for Bacteria that Grow Aerobically”, Approved standard, 7th ed., Clinical and Laboratory Standards Institute (CLSI) Document M7-A7, Wayne, Pa., USA, 2006. All Example compounds were tested against several Gram positive and Gram negative bacteria such as S. aureus, E. faecalis, S. pneumoniae, M. catarrhalis, A. baumanii, E. coli or P. aeruginosa.

| SMILES | MIC |
| --- | --- |
| O=C1CSc2ccc(N3C[C@H](CNCCCc4ccc5ccccc5n4)OC3=O)cc2N1 [Example 5, 6-{(S)-2-oxo-5-[(3-quinolin-2-yl-propylamino)-methyl]-oxazolidin-3-yl}-4H-benzo[1,4]thiazin-3-one] | ≤ 0.031 µg/mL |
| COc1ccc2ccc(OC3CC(NC[C@@H]4CN(c5ccc6c(c5)NC(=O)CS6)C(=O)O4)C3)nc2c1 (stereo partly drawn) [Example 23, 6-((R)-5-{[3-(7-methoxy-quinolin-2-yloxy)-cyclobutylamino]-methyl}-2-oxo-oxazolidin-3-yl)-4H-benzo[1,4]thiazin-3-one] | ≤ 0.031 µg/mL |
| COc1ccc2ncc(OCC3CN(CC[C@@H]4CN(c5ccc6c(c5)NC(=O)CS6)C(=O)O4)C3)nc2c1 [Example 20, 6-((R)-5-{2-[3-(7-methoxy-quinoxalin-2-yloxymethyl)-azetidin-1-yl]-ethyl}-2-oxo-oxazolidin-3-yl)-4H-benzo[1,4]thiazin-3-one] | ≤ 0.031 µg/mL |
| O=C1CSc2ccc(N3C[C@@H](CCCNCCc4ccc5ccccc5n4)OC3=O)cc2N1 [Example 25, 6-{(R)-2-oxo-5-[3-(2-quinolin-2-yl-ethylamino)-propyl]-oxazolidin-3-yl}-4H-benzo[1,4]thiazin-3-one] | 0.125 µg/mL (≈ 0.27 µM) |
| O=C1CSc2ccc(N3C[C@@H](CN4CCN(Cc5ccc6ccccc6n5)CC4)OC3=O)cc2N1 [Example 28, 6-[(R)-2-oxo-5-(4-quinolin-2-ylmethyl-piperazin-1-ylmethyl)-oxazolidin-3-yl]-4H-benzo[1,4]thiazin-3-one] | 0.063 µg/mL (≈ 0.129 µM) |
| COc1ccc2ccc(OCC3CCN(C[C@@H]4CN(c5ccc6c(c5)NC(=O)CS6)C(=O)O4)CC3)nc2c1 [Example 18, 6-{(R)-5-[4-(7-methoxy-quinolin-2-yloxymethyl)-piperidin-1-ylmethyl]-2-oxo-oxazolidin-3-yl}-4H-benzo[1,4]thiazin-3-one] | 0.5 µg/mL (≈ 0.935 µM) |
| COc1ccc2ncc(OCC3CN(C[C@@H]4CN(c5ccc6c(c5)NC(=O)CO6)C(=O)O4)C3)nc2c1 [Example 22, 6-{(R)-5-[3-(7-methoxy-quinoxalin-2-yloxymethyl)-azetidin-1-ylmethyl]-2-oxo-oxazolidin-3-yl}-4H-benzo[1,4]oxazin-3-one] | ≤ 0.031 µg/mL |
| O=C1CSc2ccc(N3C[C@@H](CNCCc4ccc5ccccc5n4)OC3=O)cc2N1 [Example 24, 6-{(R)-2-oxo-5-[(2-quinolin-2-yl-ethylamino)-methyl]-oxazolidin-3-yl}-4H-benzo[1,4]thiazin-3-one] | 0.031 µg/mL (≈ 0.0713 µM) |
| COc1cnc2cc(CNCCC[C@H]3CN(c4ccc5c(c4)NC(=O)CS5)C(=O)O3)c(F)cc2n1 [Example 29, 6-((S)-5-{3-[(7-fluoro-2-methoxy-quinoxalin-6-ylmethyl)-amino]-propyl}-2-oxo-oxazolidin-3-yl)-4H-benzo[1,4]thiazin-3-one] | ≤ 0.031 µg/mL |
| O=C1COc2ccc(N3C[C@@H](CCCNCc4ccc5ccc(F)cc5n4)OC3=O)cc2N1 [Example 3, 6-((R)-5-{3-[(7-fluoro-quinolin-2-ylmethyl)-amino]-propyl}-2-oxo-oxazolidin-3-yl)-4H-benzo[1,4]oxazin-3-one] | ≤ 0.031 µg/mL |
| O=C1CSc2ccc(N3CC(CCCNCc4ccc5ccccc5n4)OC3=O)cc2N1 (racemic) [Example 1, rac-6-(2-oxo-5-{3-[(quinolin-2-ylmethyl)-amino]-propyl}-oxazolidin-3-yl)-4H-benzo[1,4]thiazin-3-one] | 0.5 µg/mL (≈ 1.11 µM) |
| O=C1CSc2ccc(N3CC(CCCNCc4cc5cccnc5s4)OC3=O)cc2N1 (racemic) [Example 9, rac-6-(2-oxo-5-{3-[(thieno[2,3-b]pyridin-2-ylmethyl)-amino]-propyl}-oxazolidin-3-yl)-4H-benzo[1,4]thiazin-3-one] | 0.125 µg/mL (≈ 0.275 µM) |
| O=C1CSc2ccc(N3C[C@@H](CCNCCc4ccc5ccccc5n4)OC3=O)cc2N1 [Example 16, 6-{(R)-2-oxo-5-[2-(2-quinolin-2-yl-ethylamino)-ethyl]-oxazolidin-3-yl}-4H-benzo[1,4]thiazin-3-one] | ≤ 0.031 µg/mL |
| O=C1CSc2ccc(N3CC(CCCNCc4cnc5ccccc5c4)OC3=O)cc2N1 (racemic) [Example 11, rac-6-(2-oxo-5-{3-[(quinolin-3-ylmethyl)-amino]-propyl}-oxazolidin-3-yl)-4H-benzo[1,4]thiazin-3-one] | 4 µg/mL (≈ 8.92 µM) |
| O=C1CSc2ccc(N3CC(CCCNCc4ccc5ncccc5c4)OC3=O)cc2N1 (racemic) [Example 14, rac-6-(2-oxo-5-{3-[(quinolin-6-ylmethyl)-amino]-propyl}-oxazolidin-3-yl)-4H-benzo[1,4]thiazin-3-one] | 1 µg/mL (≈ 2.23 µM) |
| O=C1COc2ccc(N3C[C@@H](CCNCCNc4ccc5ccccc5n4)OC3=O)cc2N1 [Example 26, 6-((R)-2-oxo-5-{2-[2-(quinolin-2-ylamino)-ethylamino]-ethyl}-oxazolidin-3-yl)-4H-benzo[1,4]oxazin-3-one] | 0.25 µg/mL (≈ 0.559 µM) |
| O=C1CSc2ccc(N3CC(CCCNCc4cc5ncccc5cc4F)OC3=O)cc2N1 (racemic) [Example 6, rac-6-(5-{3-[(6-fluoro-quinolin-7-ylmethyl)-amino]-propyl}-2-oxo-oxazolidin-3-yl)-4H-benzo[1,4]thiazin-3-one] | ≤ 0.031 µg/mL |
| COc1ccc2ncc(OCC3CN(C[C@@H]4CN(c5ccc6c(c5)OCCO6)C(=O)O4)C3)nc2c1 [Example 19, (R)-3-(2,3-dihydro-benzo[1,4]dioxin-6-yl)-5-[3-(7-methoxy-quinoxalin-2-yloxymethyl)-azetidin-1-ylmethyl]-oxazolidin-2-one] | 0.25 µg/mL (≈ 0.522 µM) |
| O=C1CSc2ccc(N3CC(CCCNCc4ccc5cccnc5c4)OC3=O)cc2N1 (racemic) [Example 13, rac-6-(2-oxo-5-{3-[(quinolin-7-ylmethyl)-amino]-propyl}-oxazolidin-3-yl)-4H-benzo[1,4]thiazin-3-one] | 0.5 µg/mL (≈ 1.11 µM) |
| O=C1CSc2ccc(N3C[C@@H](CNCCNCc4ccc5ccccc5n4)OC3=O)cc2N1 [Example 27, 6-[(R)-2-oxo-5-({2-[(quinolin-2-ylmethyl)-amino]-ethylamino}-methyl)-oxazolidin-3-yl]-4H-benzo[1,4]thiazin-3-one] | 1 µg/mL (≈ 2.16 µM) |
| COc1ccc2ncc(OCC3CN(C[C@@H]4CN(c5ccc6c(c5)NC(=O)CS6)C(=O)O4)C3)nc2c1 [Example 21, 6-{(R)-5-[3-(7-methoxy-quinoxalin-2-yloxymethyl)-azetidin-1-ylmethyl]-2-oxo-oxazolidin-3-yl}-4H-benzo[1,4]thiazin-3-one] | ≤ 0.031 µg/mL |
| O=C1CSc2ccc(N3CC(CCCNCc4cc5nccnc5s4)OC3=O)cc2N1 (racemic) [Example 10, rac-6-(2-oxo-5-{3-[(thieno[2,3-b]pyrazin-6-ylmethyl)-amino]-propyl}-oxazolidin-3-yl)-4H-benzo[1,4]thiazin-3-one] | 0.25 µg/mL (≈ 0.549 µM) |
| O=C1CSc2ccc(N3CC(CCCNCc4ccc5ccccc5c4)OC3=O)cc2N1 (racemic) [Example 12, rac-6-(5-{3-[(naphthalen-2-ylmethyl)-amino]-propyl}-2-oxo-oxazolidin-3-yl)-4H-benzo[1,4]thiazin-3-one] | 1 µg/mL (≈ 2.23 µM) |
| Cc1c(CNCCCC2CN(c3ccc4c(c3)NC(=O)CS4)C(=O)O2)sc2ccccc12 (racemic) [Example 8, rac-6-(5-{3-[(3-methyl-benzo[b]thiophen-2-ylmethyl)-amino]-propyl}-2-oxo-oxazolidin-3-yl)-4H-benzo[1,4]thiazin-3-one] | 0.063 µg/mL (≈ 0.135 µM) |
| O=C1COc2ccc(N3C[C@@H](CCCNCc4ccc5ccccc5n4)OC3=O)cc2N1 [Example 4, 6-((R)-2-oxo-5-{3-[(quinolin-2-ylmethyl)-amino]-propyl}-oxazolidin-3-yl)-4H-benzo[1,4]oxazin-3-one] | 0.063 µg/mL (≈ 0.146 µM) |
| COc1ccc2ccc(OC[C@@H]3CCN(C[C@@H]4CN(c5ccc6c(c5)NC(=O)CS6)C(=O)O4)C3)nc2c1 [Example 17, 6-{(R)-5-[(R)-3-(7-methoxy-quinolin-2-yloxymethyl)-pyrrolidin-1-ylmethyl]-2-oxo-oxazolidin-3-yl}-4H-benzo[1,4]thiazin-3-one] | ≤ 0.031 µg/mL |
| O=C1CSc2ccc(N3CC(CCCNCc4ccc5c(F)cccc5n4)OC3=O)cc2N1 (racemic) [Example 7, rac-6-(5-{3-[(5-fluoro-quinolin-2-ylmethyl)-amino]-propyl}-2-oxo-oxazolidin-3-yl)-4H-benzo[1,4]thiazin-3-one] | 0.063 µg/mL (≈ 0.135 µM) |
| O=C1CSc2ccc(N3C[C@@H](CCNCc4ccc5ccccc5n4)OC3=O)cc2N1 [Example 15, 6-((R)-2-oxo-5-{2-[(quinolin-2-ylmethyl)-amino]-ethyl}-oxazolidin-3-yl)-4H-benzo[1,4]thiazin-3-one] | ≤ 0.031 µg/mL |
| O=C1CSc2ccc(N3CC(CCCNCc4ccc5ccc(F)cc5n4)OC3=O)cc2N1 (racemic) [Example 2, rac-6-(5-{3-[(7-fluoro-quinolin-2-ylmethyl)-amino]-propyl}-2-oxo-oxazolidin-3-yl)-4H-benzo[1,4]thiazin-3-one] | 0.031 µg/mL (≈ 0.0664 µM) |
